Laboratory results: ChEMBL document CHEMBL5096191 (J Med Chem, 2021)

Assays:
Assay type in all cases: functional, cell-based
[1] = target: T1, Cannabinoid receptor 2 (Homo sapiens, UniProt P34972); assay: Negative allosteric modulation of JWH-133-induced agonist activity at wild type CB2 receptor (unknown origin) stably expressed in HEK293T cells assessed as decrease in cAMP levels preincubated for 15 mins followed by forskolin addition incubated for 15 mins by HTRF assay relative to JWH-133; settings: time 30.0 min
[2] = target: T1, Cannabinoid receptor 2; assay: (§1) Positive allosteric modulation of JWH-133-induced agonist activity at wild type CB2 receptor (unknown origin) stably expressed in HEK293T cells assessed as inhibition of forskolin-stimulated cAMP levels preincubated for 15 mins followed by forskolin addition incubated for 15 mins by HTRF assay
[3] = target: T1, Cannabinoid receptor 2; assay: as §1, with “assay relative to control” for “assay”; settings: filed as positive allosteric modulator, time 30.0 min
[4] = target: T1, Cannabinoid receptor 2; assay: Positive allosteric modulation of JWH-133-induced agonist activity at wild type CB2 receptor (unknown origin) stably expressed in HEK293T cells assessed as decrease in cAMP levels preincubated for 15 mins followed by forskolin addition incubated for 15 mins by HTRF assay relative to JWH-133; settings: filed as positive allosteric modulator, time 30.0 min
[5] = target: T1, Cannabinoid receptor 2; assay: Partial agonist activity at wild type CB2 receptor (unknown origin) stably expressed in HEK293T assessed as decrease in forskolin induced cAMP level preincubated for 15 mins followed by forskolin addition incubated for 15 mins by HTRF assay relative to control; settings: filed as partial agonist, time 30.0 min
[6] = tested on: Cannabinoid receptor 2 (Homo sapiens), P34972 [V113M]; assay: Partial agonist activity at CBR2 V1133.32M mutant (unknown origin) expressed in HEK293T assessed as increase in ERK1/2 phosphorylation incubated for 7 mins by AlphaScreenSureFire method relative to control; settings: filed as partial agonist
[7] = tested on: Cannabinoid receptor 2 (Homo sapiens), P34972 [V113M]; assay: Partial agonist activity at CBR2 V1133.32M mutant (unknown origin) stably expressed in HEK293T assessed as decrease in forskolin induced cAMP level preincubated for 15 mins followed by forskolin addition incubated for 15 mins by HTRF assay relative to control; settings: filed as partial agonist, time 30.0 min
[8] = tested on: Cannabinoid receptor 2 (Homo sapiens), P34972 [V113M]; assay: Partial agonist activity at CBR2 V1133.32M mutant (unknown origin) expressed in HEK293T assessed as increase in picometer shifts of reflected light wavelengths by DMR assay relative to control
[9] = target: T1, Cannabinoid receptor 2; assay: Partial agonist activity at wild type CB2 receptor (unknown origin) expressed in HEK293T assessed as increase in picometer shifts of reflected light wavelengths by DMR assay relative to control; settings: filed as partial agonist
[10] = target: T1, Cannabinoid receptor 2; assay: Partial agonist activity at wild type CB2 receptor (unknown origin) expressed in HEK293T assessed as increase in ERK1/2 phosphorylation incubated for 7 mins by AlphaScreenSureFire method relative to control; settings: filed as partial agonist

T1 sequence (P34972 whole entry): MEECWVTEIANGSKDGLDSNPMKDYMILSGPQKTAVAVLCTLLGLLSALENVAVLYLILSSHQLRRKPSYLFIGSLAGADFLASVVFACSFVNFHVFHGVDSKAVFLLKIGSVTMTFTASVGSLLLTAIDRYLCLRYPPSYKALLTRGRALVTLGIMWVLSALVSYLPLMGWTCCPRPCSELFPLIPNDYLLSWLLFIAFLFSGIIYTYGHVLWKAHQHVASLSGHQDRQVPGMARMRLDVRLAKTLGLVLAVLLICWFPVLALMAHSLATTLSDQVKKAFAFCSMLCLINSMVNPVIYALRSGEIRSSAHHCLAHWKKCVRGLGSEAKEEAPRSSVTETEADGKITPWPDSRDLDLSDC
Chain of Cannabinoid receptor 2 (Homo sapiens), P34972 [V113M] (P34972 whole entry V113M): as the sequence (P34972 whole entry) above, with V113M counted along it

SMILES | EC50 [2] [nM] | Emax [3] [%] | %max [4] [%] | other results
C=C(C)[C@@H]1CCC(C)=C[C@H]1c1c(O)cc(CCCC)cc1O | 200 | 64.1 | – | %max ([1]; filed as negative allosteric modulator): 82%
C=C(C)[C@@H]1CCC(C)=C[C@H]1c1c(O)cc(CC)cc1O | 31.6 | 45.3 | 124 | –
C=C(C)[C@@H]1CCC(C)=C[C@H]1c1c(O)cc(CCC)cc1O [CANNABIDIVARIN] | 12.6 | 48 | 118 | –
C=C(C)[C@@H]1CCC(C)=C[C@H]1c1c(O)cc(CCCCCC)cc1O | 126 | 83.5 | – | %max [1]: 38%
C=C(C)[C@@H]1CCC(C)=C[C@H]1c1c(O)cc(CCCCC)cc1O | – | 67.8 | – | Emax [5]: 74%; Emax [6]: 186%; Emax [7]: 89.1%; Emax [8]: 5.3%; Emax [9]: 49.1%; Emax [10]: 156%
